In ChEMBL document CHEMBL1137221, “Validation of model of cytochrome P450 2D6: an in silico tool for predicting metabolism and inhibition” (J Med Chem, 2004):

Molecular target: T1, Cytochrome P450 2D6 (Homo sapiens, UniProt P10635)
Assay: Inhibitory concentration against cytochrome P450 2D6

T1 sequence (P10635 whole entry): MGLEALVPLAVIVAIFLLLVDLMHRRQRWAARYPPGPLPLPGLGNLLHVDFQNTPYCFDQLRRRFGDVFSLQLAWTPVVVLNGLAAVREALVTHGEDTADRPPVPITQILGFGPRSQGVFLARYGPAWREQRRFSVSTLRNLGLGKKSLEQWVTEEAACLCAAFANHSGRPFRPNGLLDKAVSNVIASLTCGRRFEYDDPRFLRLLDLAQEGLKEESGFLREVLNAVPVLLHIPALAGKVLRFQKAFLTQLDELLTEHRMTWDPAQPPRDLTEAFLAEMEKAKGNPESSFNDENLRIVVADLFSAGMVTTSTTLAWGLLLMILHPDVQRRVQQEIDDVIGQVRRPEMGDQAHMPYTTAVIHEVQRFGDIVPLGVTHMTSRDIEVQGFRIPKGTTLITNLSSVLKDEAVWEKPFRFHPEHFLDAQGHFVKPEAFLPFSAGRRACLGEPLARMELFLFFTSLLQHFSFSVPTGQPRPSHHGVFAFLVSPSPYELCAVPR

IC50 [µM]	Structure (SMILES)
699	NS(=O)(=O)OCCCCCCCOS(N)(=O)=O
310	O=C1CC2(CCCCC2)C(=O)C1CC(Cl)CCl (configuration not stated)
570	O=C(O)c1ccc(CNCc2ccccc2)cc1
234	NCCCc1c(-c2ccccc2)nc(N)[nH]c1=O
1020	O=C(Cn1ccnc1[N+](=O)[O-])N(CCO)CCO
288	COc1ccc(S(=O)(=O)N/N=C/C(=O)O)cc1
2.1	Clc1ccc(Cl)c(SCCCN2CCNCC2)c1
7.2	CN(C)CCOc1ccc(/C(=C/c2ccccc2)c2ccccc2)cc1
11	CC(C)NC(=O)OCc1c(COC(=O)NC(C)C)c(-c2ccc(Cl)c(Cl)c2)n2c1CCC2
2020	O=CC(NC(=O)N(CCCl)N=O)C(O)C(O)C(O)CO (configuration not stated)
8	NCC(O)CSCc1ccc(Cl)cc1 (configuration not stated)
1.5	CCN(CC)CCNc1ccc(CO)c2sc3ccccc3c(=O)c12 [HYCANTHONE]
2.6	CNCCC=C1c2ccccc2CCc2ccccc21 [NORTRIPTYLINE]

Structure (SMILES)	IC50 [µM]
COC12[C@H](COC(N)=O)C3=C(C(O)=C(C)C(=N)C3=O)N1C[C@H]1[C@@H]2N1C (some centres not stated)	94.3
COc1ccc2c(c1[N+](=O)[O-])CC[C@@H]1[C@@H]2CC[C@]2(C)C(=O)CC[C@@H]12	196
COC(=O)C12OC[C@]34[C@H]([C@@H](O)[C@@H]1O)[C@@]1(C)CC(=O)C(O)=C(C)[C@@H]1C[C@H]3OC(=O)[C@H](OC(=O)/C=C(\C)C(C)C)[C@@H]24 (single isomer, unassigned) [BRUCEANTIN]	514
CC(=O)N(C)c1ccc(Nc2cc(C)nc3ccc4[nH]cnc4c23)cc1 [ACODAZOLE]	18.1
CN(C)CCN1C(=O)c2cccc3cc(N)cc(c23)C1=O [AMONAFIDE]	39.6
O=C(O)CCCc1ccc(N(CCCl)CCCl)cc1 [CHLORAMBUCIL]	65.1
C=C[C@H]1C[N@@]2CC[C@H]1C[C@@H]2[C@@H](O)c1ccnc2ccccc12 [CINCHONINE]	1.8
Nc1ccc2c(c1)CN1C(=O)c3ccccc3C1=N2 [DANIQUIDONE]	48

Molecular target: T1, Cytochrome P450 2D6
Assay: Binding affinity for cytochrome P450 2D6
Assay type: ADME

Structure (SMILES)	Ki [µM]
C=C[C@H]1C[N@@]2CC[C@H]1C[C@@H]2[C@@H](O)c1ccnc2ccccc12 [CINCHONINE]	21
